Reference: patent publication US20040038369A1, “Airway-specific trypsin-like enzymes and method of using the same” (priority 2000, published 2004)

System: NCI-H292 cells
Test: AB-PAS staining of mucus glycoprotein in NCI-H292 cells
Type: cell-based, human
Conditions: FIG. 1 and 2
Method: (§1) NCI-H292 cells (human pulmonary mucoepidermoid tumor cell strain, purchased from ATCC) were suspended in 10% FCS (Fetal Calf Serum)-containing RPMI-1640 (produced by Gibco Corp.), sowed on a Lab-Tek 8 well chamber slide (produced by Nunc Corp.) in a density of 6.0×10^4 cells/cm^2, cultured for 72 hours, subjected to the replacement of the culture solution by RPMI-1640 containing 0.1% of BSA, and further cultured for 24 hours.
On the day of the treatment, the culture solution of each well was replaced by RPMI-1640 (containing 0.1% BSA) containing EGF (5 ng/mL, produced by Becton Dickinson Corp.), HB-EGF (5 ng/mL, produced by R & D Corp.), TGF-α (5 ng/mL, produced by Peprotech Corp.), or PBS to start the treatment. Then, the cells were incubated at 37° C. for 24 hours.
After the prescribed 24 hours treatment, the culture supernatant was removed. The residue was once washed with PBS, mixed with 4% paraformaldehyde/PBS, and then allowed to stand at room temperature for one hour to immobilize the cells. The immobilized cells were twice washed with Milli Q water and then stained with AB-PAS. The staining was carried out according to a book (“All of new dyeing methods” p136-150 (Iyaku Shuppansha)). After staining, the cells were sequentially immersed in 70, 80, and 100% ethanol for five minutes, respectively, to remove water, sealed in an Aquatex (produced by Merck Corp.), and then subjected to the observation of the staining image with an optical microscope. From the results, it was clarified that all of HAST, TGF-α, EGF, and HB-EGF promoted the production of the mucus glycoprotein.
as §1, with “(purchased” for “(human pulmonary mucoepidermoid tumor cell strain, purchased”, “FCS-containing” for “FCS (Fetal Calf Serum)-containing”, “hours. […]” for “hours.”

Substance: HAST: human airway-specific trypsin-like enzyme; propeptide moiety bound to trypsin-like protein moiety via a disulfide bond
- production of the mucus glycoprotein: promoted
